Values quoted from earlier work in patent US20200306335A1, “A Dietary Composition Comprising Plant-Based Sources of Fatty Acids” (priority 2017, published 2020).

What was measured:
[1] = molecular target: T1, 5 alpha-R Type 1 (Homo sapiens, UniProt P18405); details: result in words, from a study cited in the background
T1 sequence (P18405 1-259): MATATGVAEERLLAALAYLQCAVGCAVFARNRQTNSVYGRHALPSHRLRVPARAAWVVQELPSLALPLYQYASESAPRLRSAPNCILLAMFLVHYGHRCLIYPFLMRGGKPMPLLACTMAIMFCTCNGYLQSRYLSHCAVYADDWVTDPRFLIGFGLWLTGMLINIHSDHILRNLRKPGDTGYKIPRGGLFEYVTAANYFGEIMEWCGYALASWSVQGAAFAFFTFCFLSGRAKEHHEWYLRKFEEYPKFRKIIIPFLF

[2] = molecular target: T2, 5 alpha-R Type 2 (Homo sapiens, UniProt P31213); details: result in words, from a study cited in the background
T2 sequence (P31213 1-254): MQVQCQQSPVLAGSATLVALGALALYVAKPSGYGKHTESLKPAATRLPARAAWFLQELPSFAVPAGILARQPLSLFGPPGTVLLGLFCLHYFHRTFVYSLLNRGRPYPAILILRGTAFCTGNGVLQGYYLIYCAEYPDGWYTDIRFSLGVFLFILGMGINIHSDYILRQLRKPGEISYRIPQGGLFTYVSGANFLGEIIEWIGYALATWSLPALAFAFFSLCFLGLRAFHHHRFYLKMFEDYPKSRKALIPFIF

| inhibition of 5 alpha-R Type 1 [1] | inhibition of 5 alpha-R Type 2 [2] | Structure (SMILES) |
| --- | --- | --- |
| active inhibitor | active inhibitor | CCCCCCCCCCCC(=O)O [Lauric acid, lauric acid] |
| – | strongly inhibit | CCCCCCCCCCCCCC(=O)O [Myristic acid, myristic acid] |
| active inhibitors | little to no inhibitory activity | CCCCCCCC/C=C\CCCCCCCC(=O)O [Oleic, oleic acid] |
| active inhibitors | little to no inhibitory activity | CCCCC/C=C\C/C=C\CCCCCCCC(=O)O [linoleic acid] |
